Activity calls are given as the source filed them. The rule behind the calls is not given here.
Assays:
[1] = (§1) Induction of neurogenesis in human H9-derived neuronal progenitor cells at 10 uM assessed as increase in Tuj1 positive cells; format: functional, Neuronal progenitor cell
Neuronal progenitor cell [2] = assay: as §1; format: functional
Plasma [3] = assay: Dose normalized AUC in C57BL/6 mouse plasma at 13.4 mg/kg, ip; format: ADME, organism-based; conditions: in vivo
Mus musculus [4] = assay: Induction of neurogenesis in C57BL/6 mouse assessed as increase in BrdU+NeuN+/BrdU+ cells in dentate gyrus at 8.5 mg/kg, ip qd for 7 days and measured on day 14 by immunohistochemistry relative to vehicle control; format: functional
[5] = Cmax in C57BL/6 mouse plasma at 13.4 mg/kg, ip; format: ADME, organism-based; set-up: dose 13.4 mg/kg, route intraperitoneal
Brain [6] = assay: Dose normalized AUC in C57BL/6 mouse brain at 1.81 mg/kg, po; format: ADME, organism-based; conditions: in vivo
Mus musculus [7] = assay: Induction of neurogenesis in C57BL/6 mouse assessed as increase in BrdU+NeuN+/BrdU+ cells in dentate gyrus at 8.5 mg/kg, ip qd for 7 days and measured on day 14 by immunohistochemistry relative to control; format: functional
Plasma [8] = assay: Plasma concentration in C57BL/6 mouse at 13.4 mg/kg, ip; format: ADME, organism-based; conditions: in vivo
[9] = AUC (0 to t) in C57BL/6 mouse plasma at 1.81 mg/kg, po; format: ADME, organism-based
Plasma [10] = assay: Dose normalized AUC in C57BL/6 mouse plasma at 1.81 mg/kg, po; format: ADME, organism-based; conditions: in vivo
[11] = Tmax in C57BL/6 mouse plasma at 13.4 mg/kg, ip; format: ADME, organism-based
[12] = Tmax in C57BL/6 mouse plasma at 1.81 mg/kg, po; format: ADME, organism-based
[13] = Unbound fraction in C57BL/6 mouse brain; format: ADME, tissue-based; conditions: brain tissue
Brain [14] = assay: Drug concentration in C57BL/6 mouse brain at 13.4 mg/kg, ip; format: ADME, organism-based; conditions: in vivo, read-out: Drug uptake
[15] = Ratio of drug level in brain to plasma in C57BL/6 mouse at 1.81 mg/kg, po; format: ADME, organism-based; conditions: read-out: BPR
[16] = Tmax in C57BL/6 mouse brain at 1.81 mg/kg, po; format: ADME, organism-based
[17] = Half life in C57BL/6 mouse plasma at 13.4 mg/kg, ip; format: ADME, organism-based
[18] = Cmax in C57BL/6 mouse brain at 1.81 mg/kg, po; format: ADME, organism-based; set-up: dose 1.81 mg/kg, route oral
[19] = Cmax in C57BL/6 mouse plasma at 1.81 mg/kg, po; format: ADME, organism-based; set-up: dose 1.81 mg/kg, route oral
[20] = AUC (0 to t) in C57BL/6 mouse brain at 1.81 mg/kg, po; format: ADME, organism-based
[21] = AUC (0 to t) in C57BL/6 mouse plasma at 13.4 mg/kg, ip; format: ADME, organism-based
[22] = Ratio of drug level in brain to plasma in mouse; format: ADME, organism-based; conditions: read-out: BPR
[23] = Induction of neurogenesis in human H9-derived neuronal progenitor cells at 0.1 to 10 uM assessed as increase in Tuj1 positive cells; format: functional, Neuronal progenitor cell
Neuronal progenitor cell [24] = assay: Induction of neurogenesis in human H9-derived neuronal progenitor cells at 0.3125 to 10 uM assessed as increase in Tuj1 protein levels incubated for 5 days by Western blotting method; format: functional
[25] = Toxicity in mouse neuronal progenitor cells at 0.1 to 10 uM assessed as increase in DAPI positive cells; format: cell-based; conditions: neuronal progenitor cell
[26] = Toxicity in human H9-derived neuronal progenitor cells at 0.1 to 10 uM assessed as increase in DAPI positive cells; format: cell-based; conditions: neuronal progenitor cell
[27] = Induction of neurogenesis in mouse neuronal progenitor cells at 0.1 to 10 uM assessed as increase in Tuj1 positive cells; format: functional, Neuronal progenitor cell

## N#Cc1csc(COc2ccc3c(c2)CN2C(=O)CN(C4CCCC4)C(=O)[C@H]2C3)c1
[1]
  fold change (FC): 1.74

## CCN(Cc1cccc(C#N)c1)c1ccc2c(c1)CN1C(=O)CN(C3CCCCC3)C(=O)[C@H]1C2
[1]
  fold change (FC): 1.45

## N#Cc1cccc(COc2ccc3c(c2)CN2C(=O)CN(C4CCCC4)C(=O)[C@@H]2C3)c1
Neuronal progenitor cell [2]
  fold change (FC): inactive

## CN(Cc1cccc(C#N)c1)c1ccc2c(c1)CN1C(=O)CN(C3CCCCC3)C(=O)[C@H]1C2
[1]
  fold change (FC): 1.67

## N#Cc1cccc(COc2ccc3c(c2)CN2C(=O)CN(C4CCN(CC(F)(F)F)CC4)C(=O)[C@H]2C3)c1
Neuronal progenitor cell [2]
  fold change (FC): inactive

## N#Cc1cccc(COc2ccc3c(c2)CN2C(=O)CN(C4CCCC4)C(=O)[C@H]2C3)c1
[1]
  fold change (FC): 2.35
Plasma [3]
  AUC/dose: 794 ng·h/mL/mg/kg
Mus musculus [4]
  Activity: 11.7%
[5]
  Cmax: 3500 ng/mL
Brain [6]
  AUC/dose: 155 ng·h/mL/mg/kg
Mus musculus [7]
  fold change (FC): 1.3
Plasma [8]
  concentration: 8.4 µM
[9]
  AUC(0-t): 534 ng·h/mL
Plasma [10]
  AUC/dose: 296 ng·h/mL/mg/kg
[11]
  Tmax: 0.25 h
[12]
  Tmax: 1 h
[13]
  fraction unbound: 0.02
Brain [14]
  concentration: 6.1 µM
[15]
  Kp: 0.1
[16]
  Tmax: 1 h
[17]
  half-life: 4.95 h
[18]
  Cmax: 92 ng/mL
[19]
  Cmax: 126 ng/mL
[20]
  AUC(0-t): 280 ng·h/mL
[21]
  AUC(0-t): 10500 ng·h/mL

## N#Cc1cccc(COc2ccc3c(c2)CN2C(=O)CN(C4CCNCC4(F)F)C(=O)[C@H]2C3)c1 (stereo not given in full)
[1]
  fold change (FC): 1.78

## O=C1[C@H]2Cc3ccc(OCc4ccccc4)cc3CN2C(=O)CN1C1CCCC1
[1]
  fold change (FC): 2.07

## C[C@H]1C(=O)N2Cc3cc(OCc4cccc(C#N)c4)ccc3C[C@@H]2C(=O)N1C1CCCC1
[1]
  fold change (FC): 1.98

## N#Cc1cccc(COc2ccc3c(c2)CN2C(=O)CN(CC4CC4)C(=O)[C@H]2C3)c1
[1]
  fold change (FC): 1.57

## C[C@@H]1C(=O)N2Cc3cc(OCc4cccc(C#N)c4)ccc3C[C@@H]2C(=O)N1C1CCCC1
[1]
  fold change (FC): 2.41

## N#Cc1cccc(COc2ccc3c(c2)CN2C(=O)CN(C4CCN(CCF)CC4)C(=O)[C@H]2C3)c1
[1]
  fold change (FC): 1.91

## N#Cc1cccc(CNc2ccc3c(c2)CN2C(=O)CN(C4CCCCC4)C(=O)[C@H]2C3)c1
[1]
  fold change (FC): 1.53

## N#Cc1cccc(COc2ccc3c(c2)CN2C(=O)[C@@H](CO)N(C4CCCC4)C(=O)[C@H]2C3)c1
[1]
  fold change (FC): 2.36

## N#Cc1cccc(OCc2ccc3c(c2)CN2C(=O)CN(C4CCCC4)C(=O)[C@H]2C3)c1
[1]
  fold change (FC): 2

## O=C1[C@H]2Cc3ccc(OCc4ccc(Cl)cc4)cc3CN2C(=O)CN1C1CCCC1
[1]
  fold change (FC): 2.09

## CCOC(=O)C[C@H]1CC[C@H](N2CC(=O)N3Cc4cc(OCc5cccc(C#N)c5)ccc4C[C@@H]3C2=O)CC1
[1]
  fold change (FC): 1.69

## O=C1[C@H]2Cc3ccc(OCc4cccc(N5CCOCC5)c4)cc3CN2C(=O)CN1C1CCCC1
[1]
  fold change (FC): 2.06

## O=C1[C@H]2Cc3ccc(OCc4cccc(F)c4)cc3CN2C(=O)CN1C1CCCC1
[1]
  fold change (FC): 1.83

## COC[C@H]1C(=O)N2Cc3cc(OCc4cccc(C#N)c4)ccc3C[C@@H]2C(=O)N1C1CCCC1
[1]
  fold change (FC): 1.55

## N#Cc1cccc(COc2ccc3c(c2)CN2C(=O)CN(C4CCNCC4)C(=O)[C@H]2C3)c1
Neuronal progenitor cell [2]
  fold change (FC): inactive

## COC[C@@H]1C(=O)N2Cc3cc(OCc4cccc(C#N)c4)ccc3C[C@@H]2C(=O)N1C1CCCC1
[1]
  fold change (FC): 2.36

## N#Cc1cccc(COc2ccc3c(c2)CN2C(=O)CN(C4CCN(CC(F)F)CC4)C(=O)[C@H]2C3)c1
Neuronal progenitor cell [2]
  fold change (FC): inactive

## N#Cc1cccc(COc2ccc3c(c2)CN2C(=O)[C@H](CO)N(C4CCCC4)C(=O)[C@H]2C3)c1
Neuronal progenitor cell [2]
  fold change (FC): inactive

## O=C1[C@H]2Cc3ccc(OCc4cccc(Cl)c4)cc3CN2C(=O)CN1C1CCCC1
[1]
  fold change (FC): 2.29

## N#Cc1cccc(COc2ccc3c(c2)CN2C(=O)CN(C4CCOCC4)C(=O)[C@H]2C3)c1
Neuronal progenitor cell [2]
  fold change (FC): inactive

## N#Cc1cccc(COc2ccc3c(c2)CN2C(=O)CN(CC4CCC4)C(=O)[C@H]2C3)c1
[1]
  fold change (FC): 2.12

## N#Cc1cccc(COc2ccc3c(c2Br)CN2C(=O)CN(C4CCCC4)C(=O)[C@H]2C3)c1
[22]
  Kp: 0.5
[1]
  fold change (FC): 1.9
[23]
  fold change (FC): 1.8
Neuronal progenitor cell [24]
  Activity: Dose-dependent effect
[25]
  Activity: Non-toxic
[26]
  Activity: Non-toxic
[27]
  fold change (FC): 1.2

## N#Cc1cccc(COc2ccc3c(c2)CN2C(=O)CN(C4CCCCC4)C(=O)[C@H]2C3)c1
[1]
  fold change (FC): 2.02

## CCNC(=O)c1cccc(COc2ccc3c(c2)CN2C(=O)CN(C4CCCC4)C(=O)[C@H]2C3)c1
[1]
  fold change (FC): 1.65

Reference: ChEMBL document CHEMBL3603820, “Discovery of a novel 2,3,11,11a-tetrahydro-1H-pyrazino[1,2-b]isoquinoline-1,4(6H)-dione series promoting neurogenesis of human neural progenitor cells” (Bioorg Med Chem Lett, 2015)
